Experimental data: patent US20260007133A1, “HERBICIDAL COMPOSITION COMPRISING AZINE COMPOUNDS” (BASF SE, priority 2022, published 2026)
Where two headings read alike, the source gives them in different places.

Experiments:
Assay type in all cases: in vivo
Avena fatua = test: Greenhouse pre-emergence (PRE) herbicidal test on AVEFA
In short: (§1)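 Visual rating on a 0 (normal growth) to 100 (no emergence or above-ground kill) scale at 20 DAT. Treatment was pre-emergence spray of aqueous suspension/emulsion right after sowing into loamy sand with ~3.0% humus; covered until rooted, grown at 10-25° C or 20-35° C depending on species.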

Polygonum convolvulus = test: Greenhouse pre-emergence (PRE) herbicidal test on POLCO; settings: Fallopia convolvulus, pre-emergence
Source text: (§2) The culture containers used were plastic pots containing loamy sand with approximately 3.0% of humus as substrate. The seeds of the test plants were sown separately for each species.
For the pre-emergence treatment, the active compounds, suspended or emulsified in water, were applied directly after sowing by means of finely distributing nozzles. The containers were irrigated gently to promote germination and growth and subsequently covered with transparent plastic hoods until the plants had rooted. This cover caused uniform germination of the test plants unless this was adversely affected by the active compounds.
(§3) Depending on the species, the plants were kept at 10-25° C. and 20-35° C., respectively.
(§4) The test period extended over 2 to 4 weeks. During this time, the plants were tended and their response to the individual treatments was evaluated.
(§5) Evaluation was carried out using a scale from 0 to 100. 100 means no emergence of the plants, or complete destruction of at least the above-ground parts, and 0 means no damage or normal course of growth. A good herbicidal activity is given at values of at least 70, and very good herbicidal activity is given at values of at least 85.
(§6) If not stated differently, the respective components A and B, and if appropriate, C were formulated as a 5% by weight strength emulsion concentrate and, with addition of the amount of solvent system, introduced into the spray liquor used for applying the active compound.
(§7) As indicated application was either post emergent (POST) at the respective growth stage (GS) of the weed (BBCH code), or pre-emergent (PRE).
(§8) Assessment was 20 days after treatment (DAT).

Setaria viridis [1] = test: Greenhouse pre-emergence (PRE) herbicidal test on SETVI; settings: Setaria viridis, pre-emergence
In short: as §1

Abutilon theophrasti = test: Greenhouse post-emergence (POST) herbicidal test on ABUTH; settings: Abutilon theophrasti, post-emergence
In short: (§9)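 Sow or transplant seedlings into loamy-sand pots; grow to 3–15 cm; spray aqueous suspension/emulsion of actives from a 5% by weight emulsion concentrate; hold at 10-25° C or 20-35° C depending on species; score injury 0–100 at 20 DAT.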

Amaranthus retroflexus = test: Greenhouse post-emergence (POST) herbicidal test on AMARE; settings: Amaranthus retroflexus, post-emergence
In short: as §9

Commelina benghalensis = test: Greenhouse post-emergence (POST) herbicidal test on COMBE; settings: 480 h, 20 DAT
Method: as §2
(§10) For the post-emergence treatment, the test plants were grown to a plant height of from 3 to 15 cm, depending on the plant habit, and only then treated with the active compounds which had been suspended or emulsified in water. To this end, the test plants were either sown directly, and grown in the same containers, or they were first grown separately as seedlings and transplanted into the test containers a few days prior to treatment.
as §3, §4, §5, §6, §7, §8

Euphorbia heterophylla = test: Greenhouse post-emergence (POST) herbicidal test on EPHHL; settings: Euphorbia heterophylla, post-emergence; for inhibition at 2 g/ha: use rate 2 gai/ha; for inhibition at 4 g/ha: use rate 4 gai/ha
In short: as §9

Geranium pusillum = test: Greenhouse post-emergence (POST) herbicidal test on GERPU; settings: Geranium pusillum, post-emergence; for inhibition at 2 g/ha: use rate 2 gai/ha; for inhibition at 4 g/ha: use rate 4 gai/ha
In short: as §9

Ipomoea hederacea [2] = test: Greenhouse post-emergence (POST) herbicidal test on IPOHE; settings: Ipomoea hederacea, post-emergence
In short: as §9

Setaria viridis [3] = test: Greenhouse post-emergence (POST) herbicidal test on SETVI; settings: 480 h, 20 DAT; for inhibition at 4 g/ha: use rate 4 gai/ha
Method: as §2, §10, §3, §4, §5, §6, §7, §8

AMAPA [4] = test: Greenhouse pre-emergence (PRE) herbicidal test on AMAPA; settings: pre-emergence; for inhibition at 8 g/ha: use rate 8 gai/ha
AMAPA [5] = test: Greenhouse post-emergence (POST) herbicidal test on AMAPA; settings: post-emergence, 480 h, use rate 2 gai/ha, 20 DAT
Ipomoea hederacea [6] = test: Greenhouse pre-emergence (PRE) herbicidal test on IPOHE; settings: PRE, IPOHE, 20 DAT
In short: as §1

SETFA = test: Greenhouse pre-emergence (PRE) herbicidal test on SETFA; settings: Setaria faberi, use rate 1 gai/ha

COc1c(Br)cc(F)c(F)c1Nc1nc(N)nc(C(C)(C)F)n1 [Compound I-2] showed an inhibition at 8 g/ha (Avena fatua; use rate 8 gai/ha) of 50%, an inhibition at 8 g/ha (Polygonum convolvulus; use rate 8 gai/ha) of 80% and a pest or weed control at 2 g/ha (Setaria viridis [1]; 432 h, PRE, SETVI, I-2 solo 2 gai/ha, 18 DAT) of 70%. The pest or weed control at 2 g/ha (Setaria viridis [1]; 480 h, PRE, 2 gai/ha, 20 DAT) was 10%, the inhibition at 2 g/ha (Setaria viridis [1]; 480 h, PRE, SETVI, 2 gai/ha, 20 DAT, read-out: % activity solo application) was 25% and the inhibition at 2 g/ha (Setaria viridis [1]; 480 h, SETVI PRE, 20 DAT, use rate 2 gai/ha, read-out: % activity) was 10%. It also gave an inhibition at 2 g/ha (Setaria viridis [1]; PRE, SETVI, use rate 2 gai/ha, read-out: % activity) of 10%, an inhibition at 4 g/ha (Setaria viridis [1]; PRE, SETVI, use rate 4 gai/ha) of 30% and a pest or weed control at 2 g/ha (Abutilon theophrasti; 432 h, POST, ABUTH, I-2 solo 2 gai/ha, 18 DAT) of 20%. For the same compound, the pest or weed control at 8 g/ha (Abutilon theophrasti; 432 h, POST, ABUTH, I-2 solo 8 gai/ha, 18 DAT) was 20%, the inhibition at 2 g/ha (Abutilon theophrasti; 480 h, ABUTH POST, 20 DAT, use rate 2 gai/ha, read-out: % activity) was 10% and the pest or weed control at 2 g/ha (Abutilon theophrasti; 480 h, POST, 2 gai/ha, 20 DAT) was 10%. The inhibition at 2 g/ha (Abutilon theophrasti; 480 h, POST, ABUTH, 2 gai/ha, 20 DAT, read-out: % activity solo application) was 15%, the inhibition at 8 g/ha (Abutilon theophrasti; 480 h, POST, ABUTH, 8 gai/ha, 20 DAT, read-out: % activity solo application) was 40% and the inhibition at 8 g/ha (Abutilon theophrasti; 480 h, POST, ABUTH, use rate 8 gai/ha, 20 DAT, read-out: solo application % activity) was 40%. It also gave a pest or weed control at 2 g/ha (Amaranthus retroflexus; 432 h, POST, AMARE, I-2 solo 2 gai/ha, 18 DAT) of 55%, a pest or weed control at 8 g/ha (Amaranthus retroflexus; 432 h, POST, AMARE, I-2 solo 8 gai/ha, 18 DAT) of 70% and an inhibition at 2 g/ha (Amaranthus retroflexus; 480 h, AMARE POST, 20 DAT, use rate 2 gai/ha, read-out: % activity) of 65%. The inhibition at 8 g/ha (Amaranthus retroflexus; 480 h, AMARE POST, 20 DAT, use rate 8 gai/ha, read-out: % activity) was 65%, the pest or weed control at 8 g/ha (Amaranthus retroflexus; 480 h, POST, 8 gai/ha, 20 DAT) was 65% and the inhibition at 2 g/ha (Amaranthus retroflexus; 480 h, POST, AMARE, 2 gai/ha, 20 DAT, read-out: % activity solo application) was 40%. It also gave an inhibition at 8 g/ha (Amaranthus retroflexus; 480 h, POST, AMARE, 8 gai/ha, 20 DAT, read-out: % activity solo application) of 75%, an inhibition at 2 g/ha (Amaranthus retroflexus; 480 h, POST, AMARE, use rate 2 gai/ha, 20 DAT, read-out: solo application % activity) of 40% and an inhibition at 2 g/ha (Amaranthus retroflexus; 480 h, POST, use rate 2 gai/ha, 20 DAT, read-out: % activity) of 75%. For the same compound, the inhibition at 4 g/ha (Commelina benghalensis; use rate 4 gai/ha) was 0%, the pest or weed control at 2 g/ha (Euphorbia heterophylla; 432 h, POST, EPHHL, I-2 solo 2 gai/ha, 18 DAT) was 25% and the inhibition at 2 g/ha (Euphorbia heterophylla; 480 h, EPHHL POST, 20 DAT, read-out: % activity) was 10%. It also gave a pest or weed control at 2 g/ha (Euphorbia heterophylla; 480 h, POST, 2 gai/ha, 20 DAT) of 10%, an inhibition at 8 g/ha (Euphorbia heterophylla; 480 h, POST, EPHHL, 8 gai/ha, 20 DAT, read-out: % activity solo application) of 30% and an inhibition at 4 g/ha (Euphorbia heterophylla; 480 h, POST, EPHHL, 20 DAT) of 50%. It also gave an inhibition at 8 g/ha (Euphorbia heterophylla; 480 h, POST, EPHHL, use rate 8 gai/ha, 20 DAT, read-out: % activity) of 60%, a pest or weed control at 2 g/ha (Geranium pusillum; 432 h, POST, GERPU, I-2 solo 2 gai/ha, 18 DAT) of 40% and a pest or weed control at 8 g/ha (Geranium pusillum; 432 h, POST, GERPU, I-2 solo 8 gai/ha, 18 DAT) of 50%. It also gave an inhibition at 2 g/ha (Geranium pusillum; 480 h, GERPU POST, 20 DAT, read-out: % activity) of 20%, a pest or weed control at 2 g/ha (Geranium pusillum; 480 h, POST, 2 gai/ha, 20 DAT) of 20% and a pest or weed control at 8 g/ha (Geranium pusillum; 480 h, POST, 8 gai/ha, 20 DAT) of 25%. The inhibition at 2 g/ha (Geranium pusillum; POST, GERPU, read-out: % activity) was 30%, the inhibition at 2 g/ha (Ipomoea hederacea [2]; 480 h, IPOHE POST, 20 DAT, use rate 2 gai/ha, read-out: % activity) was 30% and the inhibition at 8 g/ha (Ipomoea hederacea [2]; 480 h, IPOHE POST, 20 DAT, use rate 8 gai/ha, read-out: % activity) was 80%. It also gave a pest or weed control at 2 g/ha (Ipomoea hederacea [2]; 480 h, POST, 2 gai/ha, 20 DAT) of 30%, a pest or weed control at 8 g/ha (Ipomoea hederacea [2]; 480 h, POST, 8 gai/ha, 20 DAT) of 80% and an inhibition at 2 g/ha (Ipomoea hederacea [2]; 480 h, POST, IPOHE, 2 gai/ha, 20 DAT, read-out: % activity solo application) of 30%. It also gave an inhibition at 2 g/ha (Ipomoea hederacea [2]; 480 h, POST, IPOHE, use rate 2 gai/ha, 20 DAT, read-out: % activity) of 10%, an inhibition at 4 g/ha (Ipomoea hederacea [2]; 480 h, POST, IPOHE, use rate 4 gai/ha, 20 DAT) of 35% and an inhibition at 2 g/ha (Ipomoea hederacea [2]; POST, IPOHE, use rate 2 gai/ha, read-out: % activity) of 30%. For the same compound, the inhibition at 4 g/ha (Setaria viridis [3]) was 20%, the inhibition at 8 g/ha (Setaria viridis [3]; use rate 8 gai/ha) was 25% and the inhibition at 4 g/ha (AMAPA [4]; 240 h, use rate 4 gai/ha, 10 DAT) was 40%. It also gave an inhibition at 8 g/ha (AMAPA [4]; 240 h, 10 DAT) of 70%, an inhibition at 16 g/ha (AMAPA [4]; 240 h, use rate 16 gai/ha, 10 DAT) of 75% and an inhibition at 2 g/ha (AMAPA [4]; 480 h, use rate 2 gai/ha, 20 DAT) of 40%. The inhibition at 8 g/ha (AMAPA [4]; 480 h, 20 DAT) was 75% and the inhibition at 2 g/ha (AMAPA [5]) was 30%.

Work on COc1c(F)cc(F)c(F)c1Nc1nc(N)nc(C(C)(C)F)n1 [Compound I-1] yielded an inhibition at 4 g/ha (Avena fatua; use rate 4 gai/ha) of 70%, an inhibition at 8 g/ha (Ipomoea hederacea [6]; Ipomoea hederacea, pre-emergence, 480 h, use rate 8 gai/ha) of 70% and an inhibition at 16 g/ha (Ipomoea hederacea [6]; Ipomoea hederacea, pre-emergence, 480 h, use rate 16 gai/ha) of 75%. For the same compound, the “% activity” value (Ipomoea hederacea [6]; use rate 16 gai/ha) was 60%, the inhibition at 1 g/ha (Polygonum convolvulus; use rate 1 gai/ha) was 50% and the inhibition at 2 g/ha (Setaria viridis [1]; 480 h, PRE, SETVI, use rate 2 gai/ha, 20 DAT, read-out: % activity) was 20%. For the same compound, the inhibition at 2 g/ha (Abutilon theophrasti; 480 h, POST, ABUTH, use rate 2 gai/ha, 20 DAT, read-out: % activity) was 30%, the inhibition at 4 g/ha (Abutilon theophrasti; 480 h, POST, ABUTH, use rate 4 gai/ha, 20 DAT) was 50% and the inhibition at 1 g/ha (Abutilon theophrasti; POST, ABUTH, use rate 1 gai/ha) was 10%. For the same compound, the inhibition at 2 g/ha (Abutilon theophrasti; POST, ABUTH, use rate 2 gai/ha, read-out: % activity) was 10%, the inhibition at 1 g/ha (Amaranthus retroflexus; POST, AMARE, use rate 1 gai/ha) was 50% and the inhibition at 16 g/ha (Commelina benghalensis; use rate 16 gai/ha) was 75%. The inhibition at 2 g/ha (Euphorbia heterophylla; 480 h, POST, EPHHL, 20 DAT, read-out: % activity) was 50%, the inhibition at 4 g/ha (Euphorbia heterophylla; 480 h, POST, EPHHL, 20 DAT) was 60% and the inhibition at 2 g/ha (Euphorbia heterophylla; POST, EPHHL, read-out: % activity) was 40%. The inhibition at 2 g/ha (Geranium pusillum; 480 h, POST, GERPU, 20 DAT, read-out: % activity) was 0%, the inhibition at 4 g/ha (Geranium pusillum; 480 h, POST, GERPU, 20 DAT) was 0% and the inhibition at 8 g/ha (Geranium pusillum; 480 h, POST, GERPU, use rate 8 gai/ha, 20 DAT, read-out: % activity) was 50%. The inhibition at 16 g/ha (Geranium pusillum; 480 h, POST, GERPU, use rate 16 gai/ha, 20 DAT) was 70%, the inhibition at 4 g/ha (Geranium pusillum; GERPU POST) was 55% and the inhibition at 1 g/ha (Geranium pusillum; POST, GERPU, use rate 1 gai/ha) was 30%. It also gave an inhibition at 2 g/ha (Setaria viridis [3]; use rate 2 gai/ha) of 5%, an inhibition at 4 g/ha (Setaria viridis [3]) of 70% and an inhibition at 1 g/ha (SETFA) of 60%.
